# Test results reported in article doi:10.1101/2024.08.19.608619, “Discovery of potent SARS-CoV-2 nsp3 macrodomain inhibitors uncovers lack of translation to cellular antiviral response” (bioRxiv, 2024).
# Read-outs that look alike come from different tables or passages of the source.
# Assays:
# Assay in all cases: biochemical
# Parameters in all cases: In vitro kinase panel profiling, per cent remaining kinase activity at 10 uM
# GSK3β(h) = target: T1, GSK3β(h) (Homo sapiens, UniProt P49841); details: atp_concentration=15, read-out: % of control remaining
# T1 construct: gene GSK3B
# From the text: (§1) We derisk potential for off-target activity by profiling the compound in a CEREP panel, a standard secondary pharmacology assessment, as well as a kinase panel to derisk a potential hinge-binding motif in our leads, and a PARP panel to derisk activity against human […]. Reassuringly, the compounds are selective, with the only off-targets being moderate human CHRM2 and KOR receptors activity associated with ASAP-0011198.
# EGFR(h) = EGFR(h) (Homo sapiens, UniProt P00533); details: atp_concentration=10, read-out: % of control remaining
# From the text: as §1
# MLK1(h) = target: T2, MLK1(h) (Homo sapiens, UniProt P80192); details: atp_concentration=45, read-out: % of control remaining
# T2 construct: gene MAP3K9
# From the text: as §1
# CDK9/cyclin T1(h) = CDK9/cyclin T1(h) (Homo sapiens, UniProt P50750); details: atp_concentration=45, read-out: % of control remaining
# From the text: as §1
# ALK(h) = ALK(h) (Homo sapiens, UniProt Q9UM73); details: atp_concentration=200, read-out: % of control remaining
# From the text: as §1
# PKBα(h) = target: T3, PKBα(h) (Homo sapiens, UniProt P31749); details: atp_concentration=155, read-out: % of control remaining
# T3 construct: gene AKT1
# From the text: as §1
# CK1γ1(h) = target: T4, CK1γ1(h) (Homo sapiens, UniProt Q9HCP0); details: atp_concentration=15, read-out: % of control remaining
# T4 construct: gene CSNK1G1
# From the text: as §1
# Pim-1(h) = target: T5, Pim-1(h) (Homo sapiens, UniProt P11309); details: atp_concentration=90, read-out: % of control remaining
# T5 construct: gene PIM1
# From the text: as §1
# Abl(h) = target: T6, Abl(h) (Homo sapiens, UniProt P00519); details: atp_concentration=45, read-out: % of control remaining
# T6 construct: gene ABL1
# From the text: as §1
# CDK2/cyclinA(h) = CDK2/cyclinA(h) (Homo sapiens, UniProt P24941); details: atp_concentration=45, read-out: % of control remaining
# From the text: as §1
# CK2α2(h) = target: T7, CK2α2(h) (Homo sapiens, UniProt P19784); details: atp_concentration=10, read-out: % of control remaining
# T7 construct: gene CSNK2A2
# From the text: as §1
# Rse(h) = target: T8, Rse(h) (Homo sapiens, UniProt Q06418); details: atp_concentration=45, read-out: % of control remaining
# T8 construct: gene TYRO3
# T8 sequence (Q06418 1-890): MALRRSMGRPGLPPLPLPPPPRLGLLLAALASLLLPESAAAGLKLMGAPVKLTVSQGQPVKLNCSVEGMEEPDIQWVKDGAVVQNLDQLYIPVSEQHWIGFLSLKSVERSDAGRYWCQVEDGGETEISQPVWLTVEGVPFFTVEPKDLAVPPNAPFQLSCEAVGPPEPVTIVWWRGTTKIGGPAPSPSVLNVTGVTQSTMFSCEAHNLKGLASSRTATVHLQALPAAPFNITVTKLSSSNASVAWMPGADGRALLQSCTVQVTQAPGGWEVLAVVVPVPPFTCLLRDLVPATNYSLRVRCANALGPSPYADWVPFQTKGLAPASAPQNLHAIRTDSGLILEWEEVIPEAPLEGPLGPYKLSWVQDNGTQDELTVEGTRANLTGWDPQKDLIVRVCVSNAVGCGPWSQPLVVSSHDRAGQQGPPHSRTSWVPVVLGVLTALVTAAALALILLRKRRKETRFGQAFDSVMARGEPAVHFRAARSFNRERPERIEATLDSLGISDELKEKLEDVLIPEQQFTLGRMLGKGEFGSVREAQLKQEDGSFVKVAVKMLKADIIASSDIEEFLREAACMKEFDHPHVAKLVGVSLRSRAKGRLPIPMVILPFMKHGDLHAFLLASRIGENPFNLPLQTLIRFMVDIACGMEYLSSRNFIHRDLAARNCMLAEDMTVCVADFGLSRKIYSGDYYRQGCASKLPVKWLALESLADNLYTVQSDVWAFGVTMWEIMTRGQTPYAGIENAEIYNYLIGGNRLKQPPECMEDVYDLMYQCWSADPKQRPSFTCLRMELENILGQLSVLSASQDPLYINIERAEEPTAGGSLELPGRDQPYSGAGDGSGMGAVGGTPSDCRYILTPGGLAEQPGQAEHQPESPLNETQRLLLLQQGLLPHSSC
# From the text: as §1
# MEK1(h) = target: T9, MEK1(h) (Homo sapiens, UniProt Q02750); details: atp_concentration=10, read-out: % of control remaining
# T9 construct: gene MAP2K1
# From the text: as §1
# SRPK1(h) = SRPK1(h) (Homo sapiens, UniProt Q96SB4); details: atp_concentration=10, read-out: % of control remaining
# From the text: as §1
# T6 sequence (P00519 whole entry): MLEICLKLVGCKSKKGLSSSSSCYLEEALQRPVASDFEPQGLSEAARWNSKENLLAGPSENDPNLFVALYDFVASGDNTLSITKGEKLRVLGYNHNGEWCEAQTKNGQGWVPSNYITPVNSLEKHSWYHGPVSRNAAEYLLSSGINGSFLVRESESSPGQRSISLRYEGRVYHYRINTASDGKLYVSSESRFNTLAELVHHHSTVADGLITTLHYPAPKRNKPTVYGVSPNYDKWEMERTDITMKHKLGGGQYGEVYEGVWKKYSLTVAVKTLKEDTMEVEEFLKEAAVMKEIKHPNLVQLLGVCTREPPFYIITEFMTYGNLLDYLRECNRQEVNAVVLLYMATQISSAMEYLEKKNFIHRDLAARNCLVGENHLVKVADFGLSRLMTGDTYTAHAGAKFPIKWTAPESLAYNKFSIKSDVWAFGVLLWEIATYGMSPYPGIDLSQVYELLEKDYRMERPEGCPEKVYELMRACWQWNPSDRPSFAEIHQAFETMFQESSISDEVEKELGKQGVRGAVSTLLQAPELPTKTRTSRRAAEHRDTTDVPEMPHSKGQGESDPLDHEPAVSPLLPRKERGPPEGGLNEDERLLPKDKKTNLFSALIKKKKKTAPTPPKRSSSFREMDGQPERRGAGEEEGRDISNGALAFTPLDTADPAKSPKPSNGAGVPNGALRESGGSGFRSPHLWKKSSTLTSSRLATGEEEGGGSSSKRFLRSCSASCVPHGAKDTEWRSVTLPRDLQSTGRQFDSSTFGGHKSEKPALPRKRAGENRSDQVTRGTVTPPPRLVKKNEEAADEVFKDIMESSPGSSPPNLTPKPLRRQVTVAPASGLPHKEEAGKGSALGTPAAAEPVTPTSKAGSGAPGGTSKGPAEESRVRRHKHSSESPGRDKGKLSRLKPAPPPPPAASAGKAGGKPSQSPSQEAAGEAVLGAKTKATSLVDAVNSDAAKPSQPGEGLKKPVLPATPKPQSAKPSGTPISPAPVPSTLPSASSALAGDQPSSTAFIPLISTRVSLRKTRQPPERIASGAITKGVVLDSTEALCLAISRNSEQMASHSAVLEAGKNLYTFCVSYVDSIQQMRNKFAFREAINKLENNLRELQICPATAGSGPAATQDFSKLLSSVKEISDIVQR
# T9 sequence (Q02750 whole entry): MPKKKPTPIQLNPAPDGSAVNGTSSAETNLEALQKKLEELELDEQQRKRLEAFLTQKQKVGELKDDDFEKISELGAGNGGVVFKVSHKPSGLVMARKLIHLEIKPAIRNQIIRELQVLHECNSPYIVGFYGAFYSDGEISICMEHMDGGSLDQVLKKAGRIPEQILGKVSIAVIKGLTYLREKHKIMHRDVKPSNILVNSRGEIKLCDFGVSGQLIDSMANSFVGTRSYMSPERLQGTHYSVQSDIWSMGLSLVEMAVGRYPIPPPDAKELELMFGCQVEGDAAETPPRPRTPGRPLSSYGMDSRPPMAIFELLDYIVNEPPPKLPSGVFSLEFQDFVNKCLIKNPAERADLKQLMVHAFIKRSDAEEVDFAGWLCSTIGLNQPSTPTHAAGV
# T1 sequence (P49841 whole entry): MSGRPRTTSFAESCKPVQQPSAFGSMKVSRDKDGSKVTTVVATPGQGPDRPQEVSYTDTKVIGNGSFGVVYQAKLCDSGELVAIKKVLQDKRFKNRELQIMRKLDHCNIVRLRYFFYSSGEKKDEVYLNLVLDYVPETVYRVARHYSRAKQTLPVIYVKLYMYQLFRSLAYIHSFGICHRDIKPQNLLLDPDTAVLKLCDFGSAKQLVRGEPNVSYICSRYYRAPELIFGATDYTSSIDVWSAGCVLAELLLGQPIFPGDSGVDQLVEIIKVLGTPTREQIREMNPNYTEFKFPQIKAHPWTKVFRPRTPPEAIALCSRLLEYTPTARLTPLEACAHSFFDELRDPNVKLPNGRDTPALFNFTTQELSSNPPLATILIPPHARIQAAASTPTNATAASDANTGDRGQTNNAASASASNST
# Sequence of EGFR(h) (P00533 whole entry): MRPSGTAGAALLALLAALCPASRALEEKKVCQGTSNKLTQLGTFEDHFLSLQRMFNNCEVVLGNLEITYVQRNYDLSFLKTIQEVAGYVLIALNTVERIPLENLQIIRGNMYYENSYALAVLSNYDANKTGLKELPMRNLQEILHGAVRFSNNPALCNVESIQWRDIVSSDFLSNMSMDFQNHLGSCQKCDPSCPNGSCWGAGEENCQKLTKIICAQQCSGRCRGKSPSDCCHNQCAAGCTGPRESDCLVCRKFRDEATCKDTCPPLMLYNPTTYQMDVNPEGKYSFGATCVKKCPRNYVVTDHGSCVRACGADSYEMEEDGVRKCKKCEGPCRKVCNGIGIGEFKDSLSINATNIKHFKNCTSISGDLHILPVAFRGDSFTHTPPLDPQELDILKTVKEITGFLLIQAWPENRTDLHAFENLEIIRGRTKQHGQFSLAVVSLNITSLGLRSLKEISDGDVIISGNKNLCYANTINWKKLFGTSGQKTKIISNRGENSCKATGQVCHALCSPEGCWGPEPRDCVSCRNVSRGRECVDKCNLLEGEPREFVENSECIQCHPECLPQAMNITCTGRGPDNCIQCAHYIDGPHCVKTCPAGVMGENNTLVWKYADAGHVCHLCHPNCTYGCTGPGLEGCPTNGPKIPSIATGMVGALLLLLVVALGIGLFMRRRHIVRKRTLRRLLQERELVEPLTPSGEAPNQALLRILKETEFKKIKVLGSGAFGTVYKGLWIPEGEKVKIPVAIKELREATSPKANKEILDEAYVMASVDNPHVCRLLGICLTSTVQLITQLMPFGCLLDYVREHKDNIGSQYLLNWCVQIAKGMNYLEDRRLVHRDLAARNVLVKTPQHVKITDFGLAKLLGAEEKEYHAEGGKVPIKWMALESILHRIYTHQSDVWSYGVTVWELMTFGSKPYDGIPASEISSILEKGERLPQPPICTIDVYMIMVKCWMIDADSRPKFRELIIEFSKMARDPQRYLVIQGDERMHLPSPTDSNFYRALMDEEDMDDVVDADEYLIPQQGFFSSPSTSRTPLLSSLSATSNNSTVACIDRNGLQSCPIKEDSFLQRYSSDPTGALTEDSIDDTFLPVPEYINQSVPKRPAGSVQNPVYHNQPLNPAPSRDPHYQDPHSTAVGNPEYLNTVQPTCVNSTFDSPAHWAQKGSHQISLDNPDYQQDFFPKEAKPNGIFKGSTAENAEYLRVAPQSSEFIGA
# T5 sequence (P11309 whole entry): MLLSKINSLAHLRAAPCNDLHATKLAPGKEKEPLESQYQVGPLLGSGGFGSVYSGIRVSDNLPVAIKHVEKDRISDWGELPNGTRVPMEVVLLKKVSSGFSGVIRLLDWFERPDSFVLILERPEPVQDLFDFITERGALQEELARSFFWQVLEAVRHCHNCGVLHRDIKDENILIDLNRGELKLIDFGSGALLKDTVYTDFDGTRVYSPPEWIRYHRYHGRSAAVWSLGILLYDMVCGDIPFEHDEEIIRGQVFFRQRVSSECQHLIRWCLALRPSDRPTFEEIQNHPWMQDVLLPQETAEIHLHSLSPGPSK
# T4 sequence (Q9HCP0 whole entry): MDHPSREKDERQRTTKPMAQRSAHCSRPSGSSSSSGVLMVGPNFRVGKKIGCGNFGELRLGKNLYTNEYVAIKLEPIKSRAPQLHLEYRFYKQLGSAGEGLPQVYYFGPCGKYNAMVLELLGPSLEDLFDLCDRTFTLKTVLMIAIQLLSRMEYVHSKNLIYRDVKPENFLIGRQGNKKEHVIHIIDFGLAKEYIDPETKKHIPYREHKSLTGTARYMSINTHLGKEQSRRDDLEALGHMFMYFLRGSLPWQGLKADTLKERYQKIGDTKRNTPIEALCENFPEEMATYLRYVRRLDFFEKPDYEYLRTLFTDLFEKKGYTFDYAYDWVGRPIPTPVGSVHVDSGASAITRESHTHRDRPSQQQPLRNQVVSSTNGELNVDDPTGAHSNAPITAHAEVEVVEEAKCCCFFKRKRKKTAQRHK
# Sequence of CDK9/cyclin T1(h) (P50750 whole entry): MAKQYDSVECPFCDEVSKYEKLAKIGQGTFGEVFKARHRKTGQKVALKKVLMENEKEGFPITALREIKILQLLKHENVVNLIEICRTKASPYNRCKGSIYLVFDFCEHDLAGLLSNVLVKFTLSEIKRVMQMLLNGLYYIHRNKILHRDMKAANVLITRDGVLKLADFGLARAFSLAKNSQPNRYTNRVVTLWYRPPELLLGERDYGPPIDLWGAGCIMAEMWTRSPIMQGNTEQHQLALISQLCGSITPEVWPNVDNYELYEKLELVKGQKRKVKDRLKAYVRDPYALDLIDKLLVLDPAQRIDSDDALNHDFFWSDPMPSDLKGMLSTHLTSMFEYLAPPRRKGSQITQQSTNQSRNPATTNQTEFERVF
# Sequence of CDK9/cyclin T1(h) (O60563 whole entry partner): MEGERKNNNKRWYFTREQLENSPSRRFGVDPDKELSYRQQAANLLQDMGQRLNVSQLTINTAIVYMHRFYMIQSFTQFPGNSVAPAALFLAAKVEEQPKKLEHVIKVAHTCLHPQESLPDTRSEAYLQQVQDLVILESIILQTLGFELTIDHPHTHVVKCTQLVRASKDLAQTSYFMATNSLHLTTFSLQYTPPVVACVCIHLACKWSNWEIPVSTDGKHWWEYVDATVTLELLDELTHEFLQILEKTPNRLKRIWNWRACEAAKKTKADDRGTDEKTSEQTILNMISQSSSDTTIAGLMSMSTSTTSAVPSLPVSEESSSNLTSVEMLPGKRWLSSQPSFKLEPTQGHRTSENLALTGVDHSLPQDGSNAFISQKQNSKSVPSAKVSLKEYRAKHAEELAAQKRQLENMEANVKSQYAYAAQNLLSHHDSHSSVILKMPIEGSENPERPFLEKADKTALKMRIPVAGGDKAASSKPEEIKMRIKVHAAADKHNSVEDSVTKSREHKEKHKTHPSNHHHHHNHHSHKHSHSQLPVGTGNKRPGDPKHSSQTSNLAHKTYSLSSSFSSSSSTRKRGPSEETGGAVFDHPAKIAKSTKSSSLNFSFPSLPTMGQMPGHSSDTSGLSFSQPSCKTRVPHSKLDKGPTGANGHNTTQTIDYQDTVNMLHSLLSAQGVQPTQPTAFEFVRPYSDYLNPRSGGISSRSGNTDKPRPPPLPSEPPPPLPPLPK
smiles,measurement,setting,value
CC(C)C(Nc1ncnc2[nH]ccc12)c1ccc2c(c1)S(=O)(=O)CCC2 (stereo not drawn) [ASAP-0008327],remaining activity at 10 µM,GSK3β(h); batch_name=ASAP-0008327-001,107%
same,remaining activity at 10 µM,EGFR(h); batch_name=ASAP-0008327-001,102%
same,remaining activity at 10 µM,MLK1(h); batch_name=ASAP-0008327-001,81%
same,remaining activity at 10 µM,CDK9/cyclin T1(h); batch_name=ASAP-0008327-001,114%
same,remaining activity at 10 µM,ALK(h); batch_name=ASAP-0008327-001,93%
same,remaining activity at 10 µM,PKBα(h); batch_name=ASAP-0008327-001,96%
same,remaining activity at 10 µM,CK1γ1(h); batch_name=ASAP-0008327-001,102%
same,remaining activity at 10 µM,Pim-1(h); batch_name=ASAP-0008327-001,80%
same,remaining activity at 10 µM,Abl(h); batch_name=ASAP-0008327-001,93%
same,remaining activity at 10 µM,CDK2/cyclinA(h); batch_name=ASAP-0008327-001,96%
same,remaining activity at 10 µM,CK2α2(h); batch_name=ASAP-0008327-001,90%
same,remaining activity at 10 µM,Rse(h); batch_name=ASAP-0008327-001,115%
same,remaining activity at 10 µM,MEK1(h); batch_name=ASAP-0008327-001,97%
same,remaining activity at 10 µM,SRPK1(h); batch_name=ASAP-0008327-001,105%
COc1ccc([C@@H](Cc2nnn[nH]2)NC(=O)c2ncnc3[nH]ccc23)cc1 [ASAP-0008340],remaining activity at 10 µM,GSK3β(h); batch_name=ASAP-0008340-001,105%
same,remaining activity at 10 µM,EGFR(h); batch_name=ASAP-0008340-001,96%
same,remaining activity at 10 µM,MLK1(h); batch_name=ASAP-0008340-001,85%
same,remaining activity at 10 µM,CDK9/cyclin T1(h); batch_name=ASAP-0008340-001,117%
same,remaining activity at 10 µM,ALK(h); batch_name=ASAP-0008340-001,95%
same,remaining activity at 10 µM,PKBα(h); batch_name=ASAP-0008340-001,94%
same,remaining activity at 10 µM,CK1γ1(h); batch_name=ASAP-0008340-001,95%
same,remaining activity at 10 µM,Pim-1(h); batch_name=ASAP-0008340-001,91%
same,remaining activity at 10 µM,Abl(h); batch_name=ASAP-0008340-001,98%
same,remaining activity at 10 µM,CDK2/cyclinA(h); batch_name=ASAP-0008340-001,97%
same,remaining activity at 10 µM,CK2α2(h); batch_name=ASAP-0008340-001,88%
same,remaining activity at 10 µM,Rse(h); batch_name=ASAP-0008340-001,88%
same,remaining activity at 10 µM,MEK1(h); batch_name=ASAP-0008340-001,92%
same,remaining activity at 10 µM,SRPK1(h); batch_name=ASAP-0008340-001,102%
CC(C)[C@@H](Nc1ncnc2[nH]c(-c3cnn(C)c3C#N)cc12)c1ccc2c(n1)OCCO2 [ASAP-0008418],remaining activity at 10 µM,GSK3β(h); batch_name=ASAP-0008418-001,85%
same,remaining activity at 10 µM,EGFR(h); batch_name=ASAP-0008418-001,81%
same,remaining activity at 10 µM,MLK1(h); batch_name=ASAP-0008418-001,81%
same,remaining activity at 10 µM,CDK9/cyclin T1(h); batch_name=ASAP-0008418-001,45%
same,remaining activity at 10 µM,ALK(h); batch_name=ASAP-0008418-001,103%
same,remaining activity at 10 µM,PKBα(h); batch_name=ASAP-0008418-001,95%
same,remaining activity at 10 µM,CK1γ1(h); batch_name=ASAP-0008418-001,87%
same,remaining activity at 10 µM,Pim-1(h); batch_name=ASAP-0008418-001,79%
same,remaining activity at 10 µM,Abl(h); batch_name=ASAP-0008418-001,52%
same,remaining activity at 10 µM,CDK2/cyclinA(h); batch_name=ASAP-0008418-001,95%
same,remaining activity at 10 µM,CK2α2(h); batch_name=ASAP-0008418-001,86%
same,remaining activity at 10 µM,Rse(h); batch_name=ASAP-0008418-001,116%
same,remaining activity at 10 µM,MEK1(h); batch_name=ASAP-0008418-001,99%
same,remaining activity at 10 µM,SRPK1(h); batch_name=ASAP-0008418-001,92%
CC(C)[C@@H](Nc1ncnc2[nH]c(-c3cnn(C)c3C#N)cc12)c1ccc2c(n1)OCCO2 [ASAP-0010716],remaining activity at 10 µM,GSK3β(h); batch_name=ASAP-0010716-002,101%
same,remaining activity at 10 µM,EGFR(h); batch_name=ASAP-0010716-002,77%
same,remaining activity at 10 µM,MLK1(h); batch_name=ASAP-0010716-002,82%
same,remaining activity at 10 µM,CDK9/cyclin T1(h); batch_name=ASAP-0010716-002,84%
same,remaining activity at 10 µM,ALK(h); batch_name=ASAP-0010716-002,106%
same,remaining activity at 10 µM,PKBα(h); batch_name=ASAP-0010716-002,94%
same,remaining activity at 10 µM,CK1γ1(h); batch_name=ASAP-0010716-002,99%
same,remaining activity at 10 µM,Pim-1(h); batch_name=ASAP-0010716-002,99%
same,remaining activity at 10 µM,Abl(h); batch_name=ASAP-0010716-002,57%
same,remaining activity at 10 µM,CDK2/cyclinA(h); batch_name=ASAP-0010716-002,104%
same,remaining activity at 10 µM,CK2α2(h); batch_name=ASAP-0010716-002,93%
same,remaining activity at 10 µM,Rse(h); batch_name=ASAP-0010716-002,107%
same,remaining activity at 10 µM,MEK1(h); batch_name=ASAP-0010716-002,103%
same,remaining activity at 10 µM,SRPK1(h); batch_name=ASAP-0010716-002,104%
Cc1nn(C)cc1-c1cc2c(NC(c3ccc4c(c3)S(=O)(=O)CCC4)C(C)C)ncnc2[nH]1 (stereo not drawn) [ASAP-0011446],remaining activity at 10 µM,GSK3β(h); batch_name=ASAP-0011446-002,96%
same,remaining activity at 10 µM,EGFR(h); batch_name=ASAP-0011446-002,87%
same,remaining activity at 10 µM,MLK1(h); batch_name=ASAP-0011446-002,79%
same,remaining activity at 10 µM,CDK9/cyclin T1(h); batch_name=ASAP-0011446-002,57%
same,remaining activity at 10 µM,ALK(h); batch_name=ASAP-0011446-002,99%
same,remaining activity at 10 µM,PKBα(h); batch_name=ASAP-0011446-002,91%
same,remaining activity at 10 µM,CK1γ1(h); batch_name=ASAP-0011446-002,99%
same,remaining activity at 10 µM,Pim-1(h); batch_name=ASAP-0011446-002,95%
same,remaining activity at 10 µM,Abl(h); batch_name=ASAP-0011446-002,76%
same,remaining activity at 10 µM,CDK2/cyclinA(h); batch_name=ASAP-0011446-002,107%
same,remaining activity at 10 µM,CK2α2(h); batch_name=ASAP-0011446-002,92%
same,remaining activity at 10 µM,Rse(h); batch_name=ASAP-0011446-002,96%
same,remaining activity at 10 µM,MEK1(h); batch_name=ASAP-0011446-002,99%
same,remaining activity at 10 µM,SRPK1(h); batch_name=ASAP-0011446-002,104%
COc1ccc([C@H](Cc2nnn[nH]2)NC(=O)c2ncnc3[nH]ccc23)cc1 [ASAP-0015381],remaining activity at 10 µM,GSK3β(h); batch_name=ASAP-0015381-001,90%
same,remaining activity at 10 µM,EGFR(h); batch_name=ASAP-0015381-001,97%
same,remaining activity at 10 µM,MLK1(h); batch_name=ASAP-0015381-001,87%
same,remaining activity at 10 µM,CDK9/cyclin T1(h); batch_name=ASAP-0015381-001,109%
same,remaining activity at 10 µM,ALK(h); batch_name=ASAP-0015381-001,106%
same,remaining activity at 10 µM,PKBα(h); batch_name=ASAP-0015381-001,97%
same,remaining activity at 10 µM,CK1γ1(h); batch_name=ASAP-0015381-001,94%
same,remaining activity at 10 µM,Pim-1(h); batch_name=ASAP-0015381-001,99%
same,remaining activity at 10 µM,Abl(h); batch_name=ASAP-0015381-001,102%
same,remaining activity at 10 µM,CDK2/cyclinA(h); batch_name=ASAP-0015381-001,113%
same,remaining activity at 10 µM,CK2α2(h); batch_name=ASAP-0015381-001,93%
same,remaining activity at 10 µM,Rse(h); batch_name=ASAP-0015381-001,100%
same,remaining activity at 10 µM,MEK1(h); batch_name=ASAP-0015381-001,100%
same,remaining activity at 10 µM,SRPK1(h); batch_name=ASAP-0015381-001,103%
